According to PMC12663137 (Nature Communications, 2025):
Several values for one entry are separate records, joined by “and”; a condition that tells them apart may be missing. Equal entries are not always repeated.

Assays:
[1] = Solubility remark (cryo-EM sample preparation); format: physicochemical; details: concentration could not be increased further
Text: convulsions (Daniels V, Wood M, Leclercq K, Kaminski RM, Gillard M. Modulation of the conformational state of the SV2A protein by an allosteric mechanism as evidenced by ligand binding assays. Br J Pharmacol. 2013 […]
understanding of how USC1244283 modulates the binding of antiseizure drugs to SV2A, the cryo-EM structure of an SV2A-UCB1244283 complex should be determined. […]
allosteric site or also the primary binding site? Are there conformational changes without BRV or UCB-J […]
In our original submission, we mentioned our unsuccessful attempt to determine the structure of the SV2A– […]
These observations are consistent with the allosteric site not being well formed (i.e., very low aƯinity) in unliganded SV2A; orthosteric ligand binding induces the formation of the allosteric site (increased aƯinity).
We have expanded the text to make these points clearer. […]
endogenous substrate is bound to the transporter, or from other oƯ-target eƯects.
- Like reported for BRV in the above-mentioned preprint, UCB1244283 prevents dissociation of UCB-J by blocking the luminal gate. […] I think such […]
experiments are important to obtain further insights into the action of UCB1244283. […]
the orthosteric site and the vesicular lumen. […]
accessing the orthosteric site, and we have included additional discussion in the revision.
(1 picture or pasted object on this page, not shown here)

[2] = molecular target: T1, SV2AEM WT or SV2AEM F188A (Homo sapiens, UniProt Q7L0J3, F188A); test: Dissociation kinetics of 3H-UCB-J (Fig. 4E); format: binding; details: F188A
T1 construct: expressed in transfected cells; host or cells: HEK293 (ATCC CRL-1573), crude membranes
T1 sequence (Q7L0J3 141-742 F188A): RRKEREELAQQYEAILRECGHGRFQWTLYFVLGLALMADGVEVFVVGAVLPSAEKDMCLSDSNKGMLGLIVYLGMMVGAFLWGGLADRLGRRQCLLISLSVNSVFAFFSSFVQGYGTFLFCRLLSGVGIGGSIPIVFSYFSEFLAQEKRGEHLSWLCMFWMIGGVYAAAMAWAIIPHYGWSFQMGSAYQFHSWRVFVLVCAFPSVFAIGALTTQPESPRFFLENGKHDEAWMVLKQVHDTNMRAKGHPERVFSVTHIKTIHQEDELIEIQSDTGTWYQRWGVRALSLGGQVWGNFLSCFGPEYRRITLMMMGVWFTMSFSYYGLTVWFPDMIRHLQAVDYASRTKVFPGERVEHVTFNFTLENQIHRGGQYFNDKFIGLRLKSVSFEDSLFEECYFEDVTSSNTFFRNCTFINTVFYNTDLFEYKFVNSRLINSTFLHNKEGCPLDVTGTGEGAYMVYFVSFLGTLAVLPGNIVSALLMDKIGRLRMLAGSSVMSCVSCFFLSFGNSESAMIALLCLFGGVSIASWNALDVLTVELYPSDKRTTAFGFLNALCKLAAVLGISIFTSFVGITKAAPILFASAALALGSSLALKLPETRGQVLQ
Experimental: (§1) Ligand binding studies were carried out using crude membranes prepared from HEK293 cells (ATCC, CRL-1573) overexpressing mVenus-SV2AWT or SV2AEM. Membranes were prepared either from transiently transfected cells or from baculovirus-infected cells as described previously. Cells were washed with DPBS (Ca^2+ and Mg^2+ free), followed by resuspending in cold SH buffer (10 mM HEPES-Tris pH 7.4, 320 mM sucrose) containing protease inhibitor cocktail (MedChemExpress) to a density of 10^7 cells/ml. This cell suspension was homogenized by passing through a bead homogenizer (Isobiotec) with 10-micron clearance bead on ice. The lysate was then centrifuged at 4000 × g for 5 min at 4 °C, and the supernatant was aliquoted, frozen in liquid nitrogen, and stored at −80 °C. The mVenus fluorescence estimated using fluorescence size-exclusion chromatography (FSEC) was used to normalize expression levels of mVenus-SV2A mutants studied as detailed previously. For all binding studies, membranes containing […] protein (estimated by BCA method) per reaction were used.
After 2 h of incubation, ligand dissociation was initiated with 0.3 µM ^1H-UCB-J and radioactivity was monitored at indicated time points by trapping equal volume of membranes on PEI-treated Unifilter-GF/C 96-well filter plates. Dissociation half-life (t1/2) estimates were obtained by fitting the data to one-phase exponential decay using GraphPad Prism 10.

[3] = system: tonic and clonic convulsions; design: method as in Daniels et al., Br J Pharmacol. 2013; details: UCB1244283 alone; ref Daniels et al., Br J Pharmacol. 2013; cited from earlier work
SV2A [4] = molecular target: T2, SV2A (Homo sapiens, UniProt Q7L0J3); test: Reduction of 3H-padsevonil (50 nM) binding by UCB1244283 (Fig. 5F); details: for 3H-Padsevonil binding (%): no UCB1244283 = 100%
T2 construct: expressed in transfected cells; host or cells: HEK293 (ATCC CRL-1573), crude membranes
T2 sequence (Q7L0J3 whole entry): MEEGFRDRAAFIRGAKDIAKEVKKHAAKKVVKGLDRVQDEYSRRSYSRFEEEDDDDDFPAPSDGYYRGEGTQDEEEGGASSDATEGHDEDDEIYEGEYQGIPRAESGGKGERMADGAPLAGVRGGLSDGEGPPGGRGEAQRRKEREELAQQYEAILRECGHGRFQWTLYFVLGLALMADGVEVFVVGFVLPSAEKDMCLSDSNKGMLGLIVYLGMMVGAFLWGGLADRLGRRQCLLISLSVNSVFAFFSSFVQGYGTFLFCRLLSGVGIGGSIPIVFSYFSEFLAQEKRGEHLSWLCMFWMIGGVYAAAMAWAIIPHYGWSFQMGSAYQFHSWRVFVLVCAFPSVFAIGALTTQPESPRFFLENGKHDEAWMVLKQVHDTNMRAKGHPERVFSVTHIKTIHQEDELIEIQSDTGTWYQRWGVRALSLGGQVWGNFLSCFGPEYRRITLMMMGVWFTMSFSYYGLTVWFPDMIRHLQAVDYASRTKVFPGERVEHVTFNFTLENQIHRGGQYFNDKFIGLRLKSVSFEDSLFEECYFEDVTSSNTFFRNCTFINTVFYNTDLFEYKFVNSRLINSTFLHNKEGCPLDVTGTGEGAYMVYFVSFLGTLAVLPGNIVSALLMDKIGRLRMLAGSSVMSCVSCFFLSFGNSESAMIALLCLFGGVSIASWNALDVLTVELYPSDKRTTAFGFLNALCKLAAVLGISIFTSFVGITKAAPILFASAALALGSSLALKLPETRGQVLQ
Experimental: Binding observed with SV2AWT was defined as 100%. Data are shown as mean ± s.d.; n = 6 biological replicates. […] Data are shown as mean ± s.d.; n = 6 biological replicates. Significance values were obtained from ordinary one-way ANOVA test (n.s. not significant; **p-value = 0.0064; ****p-value < 0.0001). Source data for (C, F) are provided as a Source data file.
as §1

SV2A WT and mutants [5] = molecular target: T3, SV2A WT and mutants (Homo sapiens, UniProt Q7L0J3, L655A); test: Modulatory effect of 30 µM UCB1244283 on 3H-UCB-J binding, effect of mutations (Fig. 4D); details: L655A
T3 construct: expressed in transfected cells; host or cells: HEK293 (ATCC CRL-1573), crude membranes
T3 sequence (Q7L0J3 whole entry L655A): as the sequence (Q7L0J3 whole entry) above, with L655A counted along it
Experimental: (§2) Data are shown as mean ± s.d.; n = 6 biological replicates. […] Data are shown as mean ± s.d.; n = 6 biological replicates. […] Residual binding observed at 70 min was defined as 0%. For WT, data are shown as mean ± s.d. […] For the DMSO group, data are shown as mean ± s.d. (n = 4 biological replicates); for the other groups, data are shown as mean (n = 2). Source data for (A, D, E, F) are provided as a Source data file.
as §1
(§3) An equal volume of dimethyl sulfoxide (DMSO) was added to control reactions. Reactions were arrested after 2 h by trapping the membranes on a Unifilter-GF/C 96-well filter plate pre-soaked with 0.1%(w/v) polyethyleneimine. Membranes were washed four times with 0.2 ml of cold binding buffer, dried, and 40 µl of scintillation liquid was added to each well. Radioactivity was monitored in MicroBeta2 plate counter. Residual binding observed in presence of either 10 µM ^1H-UCB-J or 10 µM ^1H-padsevonil was considered as background and subtracted from total binding. Estimates for Kd and Bmax were obtained by fitting the data to one site-specific binding curve using GraphPad Prism 10.

SV2A WT and mutants [6] = molecular target: T4, SV2A WT and mutants (Homo sapiens, UniProt Q7L0J3, L655Q); test: as above; details: L655Q
T4 construct: expressed in transfected cells; host or cells: HEK293 (ATCC CRL-1573), crude membranes
T4 sequence (Q7L0J3 whole entry L655Q): as the sequence (Q7L0J3 whole entry) above, with L655Q counted along it
Experimental: as §2, §1, §3

SV2A WT and mutants [7] = molecular target: T5, SV2A WT and mutants (Homo sapiens, UniProt Q7L0J3, M301A); test: as above; details: M301A; 30 µM; enhancement in SV2AWT defined as 100%
T5 construct: expressed in transfected cells; host or cells: HEK293 (ATCC CRL-1573), crude membranes
T5 sequence (Q7L0J3 whole entry M301A): as the sequence (Q7L0J3 whole entry) above, with M301A counted along it
Experimental: as §2, §1, §3

SV2A WT and mutants [8] = test: as above; design: species or system human; details: Phe188, Tyr461 or Ser601 mutated to alanine
Experimental: as §2, §1, §3

SV2A [9] = molecular target: T2, SV2A; test: Steady-state (saturation) binding of 3H-UCB-J with 30 µM UCB1244283 or 1% DMSO (Fig. 4A)
Experimental: as §1, §3

solubility [1]: poor solubility
3H-UCB-J Binding (%) ([2]; 30 µM UCB1244283, 0 min): 110.44% and 123.64%
3H-UCB-J Binding (%) ([2]; 30 µM UCB1244283, 4 min): 30.89% and 37.36%
3H-UCB-J Binding (%) ([2]; 30 µM UCB1244283, 7 min): 29.68% and 19.59%
3H-UCB-J Binding (%) ([2]; 30 µM UCB1244283, 8 min): 17.69% and 24.42%
3H-UCB-J Binding (%) ([2]; 30 µM UCB1244283, 9 min): 11.91% and 16.05%
3H-UCB-J Binding (%) ([2]; 30 µM UCB1244283, 10 min): 2.24% and 11.65%
3H-UCB-J Binding (%) ([2]; 30 µM UCB1244283, 15 min): -0.26% and 9.40%
3H-UCB-J Binding (%) ([2]; 30 µM UCB1244283, 25 min): -3.97% and 3.97%
3H-UCB-J Binding (%) ([2]; 30 µM UCB1244283, 30 min): -0.60% and 3.19%
3H-UCB-J Binding (%) ([2]; 30 µM UCB1244283, 40 min): 2.93% and 0.35%
3H-UCB-J Binding (%) ([2]; 30 µM UCB1244283, 50 min): 6.38% and 7.42%
3H-UCB-J Binding (%) ([2]; 30 µM UCB1244283, 60 min): 10.53% and 0.69%
3H-UCB-J Binding (%) ([2]; 30 µM UCB1244283, 70 min): 5.09% and -0.95%
allosteric modulation of 3H-UCB-J binding (SV2A WT and mutants [5]): did not impair modulation
allosteric modulation of 3H-UCB-J binding (SV2A WT and mutants [6]): abolished allosteric modulation
allosteric potentiation of 3H-UCB-J binding (SV2A WT and mutants [8]): loss of allosteric potentiation
3H-UCB-J Binding (f.mol/assay) (SV2A [9]; 3H-UCB-J 0.78 nM): 6 f.mol/assay and 7 f.mol/assay
Structure (SMILES): COc1ccccc1NC(=O)CC(C)Cc1cc(C)cc(C)c1 (centres unmarked) [UCB1244283]
effect against convulsions [3]: clear protective effect against tonic and clonic convulsions
displacement of padsevonil from SV2A (SV2A [4]): can displace padsevonil from SV2A in a dose-dependent manner
3H-Padsevonil binding (%) (SV2A [4]; UCB1244283 10 μM): 91.0284% and 102.553% and 101.386% and 86.5062% and 91.3202%
3H-Padsevonil binding (%) (SV2A [4]; UCB1244283 30 μM): 87.2356% and 88.6944% and 95.6966% and 92.1955% and 71.6265% and 83.5886%
3H-Padsevonil binding (%) (SV2A [4]; UCB1244283 50 μM): 81.1087% and 81.984% and 86.5062% and 85.6309% and 65.7914% and 73.0853%
3H-Padsevonil binding (%) (SV2A [4]; UCB1244283 100 μM): 69.7301% and 72.0642% and 78.9205% and 76.5864% and 67.5419%
3H-Padsevonil binding (%) (SV2A [4]; UCB1244283 500 μM): 70.4595% and 69.4384% and 72.6477% and 70.0219% and 59.2268% and 71.4807%
UCB1244283 modulation (%) (SV2A WT and mutants [7]): 204.26% and 178.72% and 164.89% and 193.57% and 161.39% and 224.53% and 226.42%
3H-UCB-J Binding (f.mol/assay) (SV2A [9]; 3H-UCB-J 1.56 nM): 11 f.mol/assay and 8 f.mol/assay and 10 f.mol/assay and 13 f.mol/assay and 14 f.mol/assay
3H-UCB-J Binding (f.mol/assay) (SV2A [9]; 3H-UCB-J 6.25 nM): 35 f.mol/assay and 45 f.mol/assay and 39 f.mol/assay and 44 f.mol/assay and 54 f.mol/assay
3H-UCB-J Binding (f.mol/assay) (SV2A [9]; 3H-UCB-J 12.50 nM): 66 f.mol/assay and 56 f.mol/assay and 69 f.mol/assay and 73 f.mol/assay and 70 f.mol/assay and 60 f.mol/assay
3H-UCB-J Binding (f.mol/assay) (SV2A [9]; 3H-UCB-J 25.00 nM): 90 f.mol/assay and 106 f.mol/assay and 118 f.mol/assay and 84 f.mol/assay and 111 f.mol/assay
3H-UCB-J Binding (f.mol/assay) (SV2A [9]; 3H-UCB-J 50.00 nM): 82 f.mol/assay and 91 f.mol/assay and 128 f.mol/assay and 130 f.mol/assay and 116 f.mol/assay and 122 f.mol/assay
3H-UCB-J Binding (f.mol/assay) (SV2A [9]; 3H-UCB-J 100.00 nM): 104 f.mol/assay and 70 f.mol/assay and 121 f.mol/assay and 105 f.mol/assay and 88 f.mol/assay and 115 f.mol/assay
